Reference: patent US5434133A, “CNP analog peptides and their use” (Suntory Limited, priority 1991, dated 1995)
“Also recorded” adds a separate entry of the source. Where a SMILES comes first, the peptide text is derived from it. Bridges are numbered along the chain shown (N, C = ends). Where no end group is shown, it is not given here. [ ]: non-standard residue; d: D form. Cha = N[C@@H](CC1CCCCC1)C(=O)O

Legend:
[1] = system: cultured vascular smooth muscle cells (VSMC) derived from the aortas of rats; test: Cell growth suppressing activity: [3H] thymidine uptake (DNA synthesis inhibition) in VSMC; assay type: cell-based, rat; conditions: 0.1 μm of each peptide; BSMC line stimulated with PDGF (20 ng/ml)
Description: 1-2: Measurement of Cell Growth Suppressing Activity
Cell growth suppressing activity was evaluated in accordance with the method of Kariya et al. (Atherosclerosis, 80, 143-147, 1990) by measuring the uptake of [^3 H] thymidine into cells as an indicator of percent DNA synthesis inhibition using the above-identified VSMC. Cells tuned to a stationary phase were incubated at 37° C. for 14 h with each sample added in the presence of 1% serum or 20 ng/ml of PDGF (platelet derived growth factor). Then, following the addition of 37 kBq/ml of [^3 H] thymidine, the incubation was continued for another 4 h and the radioactivity of [^3 H] thymidine incorporated into the cells was measured. The values of measurement were such that the uptake of [^3 H] thymidine for the case where only 1% serum or PDGF was added in the absence of peptide was taken as 100%, with the percent suppression due to the peptide addition being accordingly calculated.

[2] = system: cultured vascular smooth muscle cells (VSMC) derived from the aortas of rats; test: cGMP producing activity in cultured VSMC (cGMP radioimmunoassay); assay type: cell-based, rat; conditions: for cGMP producing activity (in words) / cGMP producing activity relative to α-hANP: rat VSMC; for cGMP producing activity (in words): comparison with CNP-22 or α-hANP; for cGMP producing activity relative to α-hANP: times as high activity as α-hANP; for cGMP producing activity (% increase for 1 μm): specific activity compared to 1 μm α-hANP (2000 fmol/400000 cells) = 100, peptide at 1 μm
Description: 1-1: Measurement of CGMP Producing Activity
The above-mentioned activity of compounds synthesized according to the present invention was measured by the methods of Hirata et al. (Biochem. Biophys. Res. Commun., 128, 538, 1985) and Scarborough et al. (J. Biol. Chem., 261, 12960, 1986). The cells used were cultured vascular smooth muscle cells (hereunder abbreviated as VSMC) derived from the aortas of rats. From 10^-9 to 10^-6 M of α-hANP or a 20 peptide of interest was incubated together with VSMC and the amount cGMP produced was measured by cGMP radioimmunoassay. Percent maximum reactivity for each peptide, with the value of maximum reactivity for α-hANP being taken as 100%, was used as an indicator of activity.

Row | Compound | % Inhibition of 3H-thymidine uptake [1] | cGMP producing activity (in words) [2] | cGMP producing activity relative to α-hANP [2] | cGMP producing activity (% increase for 1 μm) [2]
1 | CC[C@H](C)[C@@H]1NC(=O)[C@H](CCCNC(=N)N)NC(=O)[C@H](CC(=O)O)NC(=O)[C@H](CC(C)C)NC(=O)[C@H](CCCCN)NC(=O)[C@H](CC(C)C)NC(=O)CNC(=O)[C@H](Cc2ccccc2)NC(=O)[C@@H](N)CSSC[C@@H](C(=O)N[C@@H](CC(N)=O)C(=O)N[C@@H](CO)C(=O)N[C@@H](Cc2ccccc2)C(=O)N[C@@H](CCCNC(=N)N)C(=O)N[C@@H](Cc2ccc(O)cc2)C(=O)O)NC(=O)CNC(=O)[C@H](CC(C)C)NC(=O)CNC(=O)[C@H](CO)NC(=O)[C@H](CCC(N)=O)NC(=O)[C@H](C)NC(=O)CNC1=O [Compound 15, [Leu10, Lys11, Leu12] α-hANP (7-28)] (H-CFGLKLDRIGAQSGLGCNSFRY-OH; disulfide 1-17) | 72% | strong cGMP producing activity at a substantially comparable level to CNP-22 | 4-6 times | 559%
2 | CC[C@H](C)[C@@H]1NC(=O)[C@H](CCCNC(=N)N)NC(=O)[C@H](CC(=O)O)NC(=O)[C@H](CC(C)C)NC(=O)[C@H](CCCNC(=N)N)NC(=O)CNC(=O)CNC(=O)[C@H](Cc2ccccc2)NC(=O)[C@@H](NC(=O)CNC(=O)[C@H](CCCCN)NC(=O)[C@H](CO)NC(=O)[C@H](CC(C)C)NC(=O)CN)CSSC[C@@H](C(=O)O)NC(=O)CNC(=O)[C@H](CC(C)C)NC(=O)CNC(=O)[C@H](CO)NC(=O)[C@H](CCSC)NC(=O)[C@H](CO)NC(=O)CNC1=O [Compound 13] (H-GLSKGCFGGRLDRIGSMSGLGC-OH; disulfide 6-22) | – | – | – | 58%
3 | CC[C@H](C)[C@H](NC(=O)[C@H](CCCNC(=N)N)NC(=O)[C@H](CC(=O)O)NC(=O)[C@H](CC(C)C)NC(=O)[C@H](CCCCN)NC(=O)[C@H](CC(C)C)NC(=O)CNC(=O)[C@H](Cc1ccccc1)NC(=O)[C@H](CSC)NC(=O)CNC(=O)[C@H](CCCCN)NC(=O)[C@H](CO)NC(=O)[C@H](CC(C)C)NC(=O)CN)C(=O)NCC(=O)N[C@@H](CO)C(=O)N[C@@H](CCSC)C(=O)N[C@@H](CO)C(=O)NCC(=O)N[C@@H](CC(C)C)C(=O)NCC(=O)N[C@@H](CSC)C(=O)O [Compound 19, H-Gly-Leu-Ser-Lys-Gly-Cys(Me)-Phe-Gly-Leu-Lys-Leu-Asp-Arg-Ile-Gly-Ser-Met- Ser-Gly-Leu-Gly-Cys(Me)-OH] | – | hardly reduced the cGMP producing activity | – | 38%
4 | CC[C@H](C)[C@@H]1NC(=O)[C@H](CCCNC(=N)N)NC(=O)[C@H](CC(=O)O)NC(=O)[C@H](CC(C)C)NC(=O)[C@H](CCCCN)NC(=O)[C@H](CC(C)C)NC(=O)CNC(=O)[C@H](Cc2ccccc2)NC(=O)[C@@H](NC(=O)CNC(=O)[C@H](CCCCN)NC(=O)[C@H](CO)NC(=O)[C@H](CC(C)C)NC(=O)CN)CSSC[C@@H](C(=O)N[C@@H](CC(N)=O)C(=O)N[C@@H](CO)C(=O)N[C@@H](Cc2ccccc2)C(=O)N[C@@H](CCCNC(=N)N)C(=O)N[C@@H](Cc2ccc(O)cc2)C(=O)O)NC(=O)CNC(=O)[C@H](CC(C)C)NC(=O)CNC(=O)[C@H](CO)NC(=O)[C@H](CCSC)NC(=O)[C@H](CO)NC(=O)CNC1=O [Compound 3] | – | strong cGMP producing activity at a comparable level to that exhibited by CNP-22 | – | 667%
5 | CC[C@H](C)[C@@H]1NC(=O)[C@H](CCCNC(=N)N)NC(=O)[C@H](CC(=O)O)NC(=O)[C@H](CC(C)C)NC(=O)[C@H](CCCCN)NC(=O)[C@H](CC(C)C)NC(=O)CNC(=O)[C@H](Cc2ccccc2)NC(=O)[C@@H](N)CSSC[C@@H](C(=O)O)NC(=O)CNC(=O)[C@H](CC(C)C)NC(=O)CNC(=O)[C@H](CO)NC(=O)[C@H](CCSC)NC(=O)[C@H](CO)NC(=O)CNC1=O [Compound 5, CFGLKLDRIGSMSGLGC] (H-CFGLKLDRIGSMSGLGC-OH; disulfide 1-17) | 65% | strong cGMP producing activity at a comparable level to that exhibited by CNP-22 | – | 616%
6 | CC[C@H](C)[C@@H]1NC(=O)[C@H](CCCNC(=N)N)NC(=O)[C@H](CC(=O)O)NC(=O)[C@H](CCSC)NC(=O)[C@H](CCCNC(=N)N)NC(=O)[C@H](CC(C)C)NC(=O)CNC(=O)[C@H](Cc2ccccc2)NC(=O)[C@@H](NC(=O)CNC(=O)[C@H](CCCCN)NC(=O)[C@H](CO)NC(=O)[C@H](CC(C)C)NC(=O)CN)CSSC[C@@H](C(=O)O)NC(=O)CNC(=O)[C@H](CC(C)C)NC(=O)CNC(=O)[C@H](CO)NC(=O)[C@H](CCSC)NC(=O)[C@H](CO)NC(=O)CNC1=O [Compound 12] (H-GLSKGCFGLRMDRIGSMSGLGC-OH; disulfide 6-22) | – | – | – | 273%
7 | CC[C@H](C)[C@@H]1NC(=O)[C@H](CCCNC(=N)N)NC(=O)[C@H](CC(=O)O)NC(=O)[C@H](CC(C)C)NC(=O)[C@H](CCCCN)NC(=O)[C@H](CC(C)C)NC(=O)CNC(=O)[C@H](CC2CCCCC2)NC(=O)[C@@H](N)CSSC[C@@H](C(=O)N[C@@H](CC(N)=O)C(=O)N[C@@H](CO)C(=O)N[C@@H](Cc2ccccc2)C(=O)N[C@@H](CCCNC(=N)N)C(=O)N[C@@H](Cc2ccc(O)cc2)C(=O)O)NC(=O)CNC(=O)[C@H](CC(C)C)NC(=O)CNC(=O)[C@H](CO)NC(=O)[C@H](CCC(N)=O)NC(=O)[C@H](C)NC(=O)CNC1=O [Compound 27] (H-C[Cha]GLKLDRIGAQSGLGCNSFRY-OH; disulfide 1-17) | – | – | 4-6 times | 523%
8 | pCNP-53: porcine CNP-53, CNP-22 with 31 amino acid residues attached to the N-terminus (DLRVDTKSRAAWARLLHEHPNARKYKGGNKKGLSKGCFGLKLDRIGSMSGLGC; disulfide 37-53 (inferred); ends not checked; UniProt P18104 74-126, looked up) [reference compound] | – | – | – | 524%
9 | CC[C@H](C)[C@@H]1NC(=O)[C@H](CCCNC(=N)N)NC(=O)[C@H](CC(=O)O)NC(=O)[C@H](CCSC)NC(=O)[C@H](CCCCN)NC(=O)CNC(=O)CNC(=O)[C@H](Cc2ccccc2)NC(=O)[C@@H](NC(=O)CNC(=O)[C@H](CCCCN)NC(=O)[C@H](CO)NC(=O)[C@H](CC(C)C)NC(=O)CN)CSSC[C@@H](C(=O)O)NC(=O)CNC(=O)[C@H](CC(C)C)NC(=O)CNC(=O)[C@H](CO)NC(=O)[C@H](CCSC)NC(=O)[C@H](CO)NC(=O)CNC1=O [Compound 11] (H-GLSKGCFGGKMDRIGSMSGLGC-OH; disulfide 6-22) | – | particularly marked; also recorded: lower in cGMP producing activity than the other one- and two-residue substituted derivatives | – | 71%
10 | GLSKGCpC1FGLKLDRIGSMSGLGC [Compound 16] | – | stronger activity than CNP-22 | – | 688%
11 | CC[C@H](C)[C@@H]1NC(=O)[C@H](CCCNC(=N)N)NC(=O)[C@H](CC(=O)O)NC(=O)[C@H](CC(C)C)NC(=O)[C@H](CCCCN)NC(=O)[C@H](CC(C)C)NC(=O)CNC(=O)[C@H](Cc2ccccc2)NC(=O)[C@@H](NC(=O)[C@H](CO)NC(=O)[C@H](CO)NC(=O)[C@H](CCCNC(=N)N)NC(=O)[C@H](CCCNC(=N)N)NC(=O)[C@H](CC(C)C)NC(=O)[C@@H](N)CO)CSSC[C@@H](C(=O)O)NC(=O)CNC(=O)[C@H](CC(C)C)NC(=O)CNC(=O)[C@H](CO)NC(=O)[C@H](CCSC)NC(=O)[C@H](CO)NC(=O)CNC1=O [Compound 4] (H-SLRRSSCFGLKLDRIGSMSGLGC-OH; disulfide 7-23) | – | strong cGMP producing activity at a comparable level to that exhibited by CNP-22 | – | 663%
12 | CC[C@H](C)[C@@H]1NC(=O)[C@H](CCCNC(=N)N)NC(=O)[C@H](CC(=O)O)NC(=O)[C@H](CCSC)NC(=O)[C@H](CCCNC(=N)N)NC(=O)CNC(=O)CNC(=O)[C@H](Cc2ccccc2)NC(=O)[C@@H](NC(=O)[C@H](CO)NC(=O)[C@H](CO)NC(=O)[C@H](CCCNC(=N)N)NC(=O)[C@H](CCCNC(=N)N)NC(=O)[C@H](CC(C)C)NC(=O)[C@@H](N)CO)CSSC[C@@H](C(=O)O)NC(=O)CNC(=O)[C@H](CC(C)C)NC(=O)CNC(=O)[C@H](CO)NC(=O)[C@H](CCC(N)=O)NC(=O)[C@H](C)NC(=O)CNC1=O [Compound 1] | – | only a weak cGMP producing activity at a level comparable to α-hANP | – | 62%
